Consider 14 compounds from US4659730A, “Aromatase inhibiting imidazole derivatives” (Eli Lilly and Company, priority 1984, dated 1987).

Counter-ions that a name gives are not always drawn. Like-named read-outs stand apart in the source and are kept apart here.

Test [1] relates to breast cancer. Conditions: known aromatase inhibitors; Cancer Research, Vol. 42, Suppl. 8:3261s (1982); cited from earlier work.
In test [2] the target is T1, aromatase (Rattus norvegicus, UniProt P22443).
T1 sequence (P22443 1-508): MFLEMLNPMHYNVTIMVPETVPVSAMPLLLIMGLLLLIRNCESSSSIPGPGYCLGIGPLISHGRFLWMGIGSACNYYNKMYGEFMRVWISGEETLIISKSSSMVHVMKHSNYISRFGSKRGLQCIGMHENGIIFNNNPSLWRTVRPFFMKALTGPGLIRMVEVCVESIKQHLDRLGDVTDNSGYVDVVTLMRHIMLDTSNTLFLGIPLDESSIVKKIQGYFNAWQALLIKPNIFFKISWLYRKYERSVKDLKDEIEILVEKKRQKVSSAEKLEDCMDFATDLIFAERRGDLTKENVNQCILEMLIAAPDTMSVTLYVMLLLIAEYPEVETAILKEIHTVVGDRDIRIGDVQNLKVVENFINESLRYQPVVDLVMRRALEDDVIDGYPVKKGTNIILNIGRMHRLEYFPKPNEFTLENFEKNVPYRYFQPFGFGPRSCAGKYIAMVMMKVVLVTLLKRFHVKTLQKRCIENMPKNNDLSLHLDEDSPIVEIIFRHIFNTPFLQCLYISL
Nature of the test: biochemical.
Experimental: In this test system, ovarian microsomes are obtained from rats treated with pregnant mares serum gonadotropin. Test compounds are added to reaction vials containing 0.1 μM 4-androstene-3,17-dione, 100,000 dpm 1,2[^3 H]-androstenedione, the microsomes and a NADPH generating system. The concentrations of the inhibitors tested ranged between 0.005 and 10 μM.

In test [3] the test system is aromatization (estrogen synthesis). Description: Estrogen synthesis inhibition in rats (uterine weight and ovarian steroid levels). Conditions: 7 days; for Mean Uterine Weight: testosterone propionate-treated rats; for Mean Steroid Concentration, estrone / Mean Steroid Concentration, estriol / Mean Steroid Concentration, estradiol: ovaries; for Mean Steroid Concentration, estrone: testosterone-treated control 0.19; for Mean Steroid Concentration, estriol: testosterone-treated control 0.53; for Mean Steroid Concentration, estradiol: testosterone-treated control 0.55. Format: in vivo, rat (immature female Wistar).

[4] abbreviates: rat ovarian microsomes, substrate (androstenedione) concentration 0.1 μM.
Setting [5] is: 30 ppm in feed (approx. 3 mg/kg/day).
Setting [6] is: 300 ppm in feed (approx. 30 mg/kg/day).

`CCC1(c2ccc(N)cc2)CCC(=O)NC1=O` (stereo not drawn) [aminoglutethimide]: the “effect in treatment of breast cancer” value in test [1] was “beneficial effect in treatment of breast cancer”.
Broadly, the EC50 is the concentration giving half of the maximal effect. Read a low EC50 as an effect from little substance. The compound `c1ccc2c(c1)CCC2n1ccnc1` (stereo not drawn) [nitrate] registered an EC50 in test [2] of 810 nM.
On to `C[C@]12C=CC(=O)C=C1CC[C@@H]1[C@@H]2CC[C@]2(C)OC(=O)CC[C@@H]12` [testolactone], for which the “effect in treatment of breast cancer” value in test [1] is given as “beneficial effect in treatment of breast cancer”.
Turning to `Clc1cccc2c1CCC2n1ccnc1` (stereo not drawn) [1-(4-chloro-2,3-dihydro-1H--inden-1-yl)-1H--imidazole nitrate], in test [2] (setting [4]), the midpoint of the response, the EC50, lay at 680 nM.
Take `COc1cccc2c1CCCC2n1ccnc1` (stereo not drawn) [nitrate]: the response in test [2] was half-maximal at 250 nM (EC50).
Same read-out and setting: the figure for `c1ccc2c(c1)CCCC2n1ccnc1` (stereo not drawn) [nitrate] is 520 nM.
In test [2] (setting [4]), `Clc1ccc2c(c1)C(n1ccnc1)CCC2` (stereo not drawn) [1-(7-chloro-1,2,3,4-tetrahydro-1-naphthalenyl)-1H--imidazole nitrate] had a concentration giving a half-maximal response (EC50) of 100 nM.
In the case of `c1ccc2c(c1)SCCC2n1ccnc1` (stereo not drawn) [nitrate], the EC50 in test [2] stood at 1020 nM.
For `c1ccc2c(c1)OCCC2n1ccnc1` (stereo not drawn) [1-(3,4-dihydro-2H-1-benzopyran-4-yl)-1H-imidazole hydrochloride], the EC50 in test [2] (setting [4]) came out at 2800 nM.
As for `Clc1cc2c(cc1Cl)C(n1ccnc1)CC2.O=[N+]([O-])O` (stereo not drawn), the “Mean Uterine Weight” value in test [3] (30 ppm in feed (approx. 3 mg/kg/day), 4 animals, testosterone-treated control 140.8) is 152.5 mg. For the same compound, the “Mean Uterine Weight” value in test [3] (300 ppm in feed (approx. 30 mg/kg/day), 5 animals, significantly different from testosterone-treated control (140.8), p < 0.05) is 103.2 mg. In addition, in test [3] (setting [5]), the “Mean Steroid Concentration, estrone” value is reported as 0.21 femtomoles per milligram of protein; the “Mean Steroid Concentration, estriol” value was 0.46 femtomoles per milligram of protein; the “Mean Steroid Concentration, estradiol” value is recorded as 0.71 femtomoles per milligram of protein. Moreover, in test [3] (setting [6]), the “Mean Steroid Concentration, estrone” value is on record as 0.17 femtomoles per milligram of protein; the “Mean Steroid Concentration, estriol” value is recorded as 0.49 femtomoles per milligram of protein; the “Mean Steroid Concentration, estradiol” value is on record as 0.35 femtomoles per milligram of protein.
On to `Clc1cc(Cl)c2c(c1)C(n1ccnc1)CC2` (stereo not drawn) [nitrate], for which, in test [2], the concentration giving a half-maximal response (EC50) was determined as 115 nM.
For `COc1ccc(OC)c2c1CCC2n1ccnc1` (stereo not drawn) [nitrate], in test [2], the EC50 came to 870 nM.
Same read-out and setting: the figure for `COc1ccc2c(c1)C(n1ccnc1)CCC2` (stereo not drawn) [nitrate] is 450 nM; for `Clc1cc2c(cc1Cl)C(n1ccnc1)CC2.O=[N+]([O-])O` (stereo not drawn) [nitrate] it is 78 nM.
